≈ marks a conversion by molar mass, not a printed value.
Experiments:
[1] = molecular target: purified human 20S proteasome (CT-L activity) (Homo sapiens, UniProt P28074); assay: Proteasomal CT-L activity measurement with Suc-LLVY-AMC; assay type: biochemical; details: for IC50: Suc-LLVY-AMC substrate, 37° C., 30 min
Description: (§1) Proteasomal activity measurement: The fluorogenic substrates Suc-LLVY-AMC, Z-ARR-AMC, and Z-LLE-AMC were used to measure CT-L, T-L and casp-L proteasome activities, respectively. Assays were carried out in black, clear bottom 96 well plates in a 200 μL reaction volume containing 1 nM of purified human 20S proteasome in 50 mM Tris-HCL pH 7.5 and 0.03% SDS containing 50 IM fluorogenic substrate at 37° C. The rate of cleavage of fluorogenic peptide substrates was determined by monitoring the fluorescence of released aminomethylcoumarin using a SpectraMax M5e multiwall plate reader at an excitation wavelength of 380 nm and emission wavelength of 460 nm. Fluo-rescence was measured every minute over a period of 30 minutes and the maximum increase in fluorescence per minute was used to calculate specific activities of each sample.
Compounds were screened in vitro using purified human 20S proteasome and the fluorogenic peptide substrate, Suc-LLVY-AMC, as the substrate for CT-L activity as described herein.
The mechanism by which quinoline 7 inhibits the proteasome was investigated using Michaelis-Menton analysis to determine of KM and Vmax and then further illustrated using a Lineweaver-Burk double reciprocal plot of the kinetic data. Kinetic analysis of CT-L activity of purified 20S particles indicate that when the substrate (Suc-LLVY-AMC) concentration was increased incrementally and measurements were taken at five different concentrations of compound 7 or vehicle, the Vmax of the CT-L activity decreases and the KM increases, with the increasing concentration of […].

HeLa NF-κB-luc cells = assay: NF-κB-luc reporter assay, TNF-α stimulated; assay type: cell-based; details: Homo sapiens, 30 min pretreatment, TNF-α 25 ng/mL, 8 h, Steady-Glo luciferase, read-out: IC50, NF-κB mediated gene transcription
Description: NF-κB-luc reporter assay: HeLa NF-κB-luc cells (5.0×10^5 cells/mL) were seeded into a 96-well white opaque plate using DMEM medium supplemented with 5% fetal bovine serum, 500 U/mL penicillin, 100 μg/mL streptomycin, 1 mM sodium pyruvate, 0.2 mM L-glutamine, and 100 Ig/mL hygromycin B. After 24 h the cell culture medium was replaced with DMEM medium supplemented with 100 U/mL penicillin and 100 Ig/mL streptomycin. Cell cultures were pretreated with vehicle (1% DMSO), 50 IMpeptide aldehyde MG-132 (positive control) or quinoline (final concentrations were 50, 25, 12.5, 6.25, 3.13 and 1.56 IM) for 30 min at 37° C. in 5% CO2. TNF-α was added to a final concentration of 25 ng/mL and the samples were further incubated for 8 h at 37° C. in 5% CO2. […] The luminescence of each well was measured using a Veritas microplate luminometer. […] The data was analyzed using GraphPad Prism 4.0. The data was normalized to TNF-α activation and the EC50 values were calculated using the equation for the sigmodial curve for variable slope.
In order to evaluate whether the inhibition of proteasome activity translated in cell culture, we evaluated compound 7 for inhibition of NE-KB regulation. […] In order to determine if quinoline 7 affects NE-KB mediated gene transcription, we evaluated quinoline 7 in HeLa NE-KB-luc cells. […]

Kinetic solubility assay = assay type: physicochemical; details: phosphate buffered saline with 1% DMSO, aqueous buffer, kinetic from dmso stock; estimated kinetic solubility, phosphate buffered saline pH 7.4, 1% DMSO, 2 hours at 37° C., absorbance 620 nm
Description: Seven three-fold dilutions from 300 μM were prepared in phosphate buffered saline (ph=7.4) and 1% DMSO. Each concentration for each compound was tested three times (n=3). The compounds were incubated for 2 hours at 37° C. and the absorbance at 620 nm was evaluated for each dilution.

[2] = Microsome (S9 fraction) stability assay; assay type: in vitro ADME; details: mouse S9 fraction 0.25 mg/mL, 3 μM compound, NADPH, LC-MS/MS
[3] = molecular target: purified human 20S proteasome (casp-L activity) (Homo sapiens, UniProt P28072); assay: Proteasomal casp-L activity measurement with Z-LLE-AMC; assay type: biochemical; details: Z-LLE-AMC substrate
Description: as §1
Quinoline 7 was subsequently evaluated for its inhibition of the proteasome's tryptic (b2)-like and caspase (b1)-like activity in vitro using purified human 20S proteasome and the following fluorogenic peptide as substrates: Boc-LRR-AMC (substrate for T-L activity) and Z-LLE-AMC (substrate for casp-L activity).

SMILES	IC50 [1] [µM]	solubility at 2 h (Kinetic solubility assay) [µM]	Compound remaining after 30 min in mouse S9 [2] [%]	other results
Cc1cc(C)c2cc(-c3ccccc3)cnc2c1 [Compound 4, 5,7-Dimethyl-3-phenylquinoline]	23.6	–	–	–
Cc1ccc2nc(C)c(-c3ccccc3)cc2c1 [Compound 5, 2,6-Dimethyl-3-phenylquinoline]	19.2	–	–	–
Cc1cc(C)c2cc(-c3ccccc3)c(C)nc2c1 [Compound 6, 2,5,7-trimethyl-3-phenylquinoline]	15.3	–	–	–
Cc1cc(C)c2cc(C3=CCCCC3)c(C)nc2c1 [Compound 7, 3-cyclohexenyl-2,5,7-trimethylquinoline]	14.4	38.1 (≈ 9.58 µg/mL)	18	Mechanism of inhibition (Michaelis-Menton / Lineweaver-Burk analysis) ([1]; Suc-LLVY-AMC varied, five concentrations of compound, Vmax decreases, KM increases): mixed-type inhibition; IC50 (HeLa NF-κB-luc cells): 12.1 µM; IC50 [3]: 17.7 µM
CCc1nc2cc(C)cc(C)c2cc1C1=CCCCC1 [Compound 8, 2-Ethyl-3-cyclohexenyl-5,7-dimethylquinoline]	19.9	–	–	–
Cc1cc(C)c2cc(C3=CCCCC3)cnc2c1 [Compound 9, 3-Cyclohexenyl-5,7-dimethylquinoline]	13.8	–	–	–
Cc1cc(C)c2cc(C3CCCCC3)c(C)nc2c1 [Compound 11]	8.2	129 (≈ 32.6 µg/mL)	100	–
Cc1nc2ccc(Br)cc2cc1C1=CCCCC1 [Compound 16, 6-Bromo-3-cyclohexenyl-2-methylquinoline]	9.9	–	–	–
Cc1ccc2nc(C)c(C3=CCCCC3)cc2c1 [Compound 19, 3-Cyclohexenyl-2,6-dimethylquinoline]	8.5	–	–	–
CCCCc1ccc2nc(C)c(C3=CCCCC3)cc2c1 [Compound 20, 6-Butyl-3-cyclohexenyl-2-methylquinoline]	7.6	14.5 (≈ 4.05 µg/mL)	12	–
CN(C)c1ccc2ncc(C3=CCCCC3)cc2c1 [Compound 21, 3-Cyclohexenyl-6-(N,N-dimethylamino)quinoline]	6.3	–	–	–
Cc1nc2ccc(N(C)C)cc2cc1C1=CCCCC1 [Compound 22, 3-Cyclohexenyl-2-methyl-6-(N,N-dimethylamino) quinoline]	6.1	–	–	–
CCc1nc2ccc(N(C)C)cc2cc1C1=CCCCC1 [Compound 23, 3-Cyclohexenyl-2-ethyl-6(N,N-dimethylamino)quinoline]	5.6	27.4 (≈ 7.68 µg/mL)	5	–
Cc1nc2ccc(N3CCCCC3)cc2cc1C1=CCCCC1 [Compound 25, 3-Cyclohexenyl-2-methyl-6-piperidinylquinoline]	5.4	–	–	–
COc1cc2nc(C)c(C3=CCCCC3)cc2c(OC)c1OC [Compound 27, 3-Cyclohexenyl-5,6,7-trimethoxy-2-methylquinoline]	15.6	–	–	–
CN(C)c1ccc2ncc(C3CCCCC3)cc2c1 [Compound 28, 3-Cyclohexyl-6-(N,N-dimethylamino)quinoline]	5.5	–	–	–
Cc1nc2ccc(N(C)C)cc2cc1C1CCCCC1 [Compound 29, 3-Cyclohexyl-2-methyl-6-(N,N-dimethylamino) quinoline]	6.7	138 (≈ 37.1 µg/mL)	4	–
Cc1nc2ccc(C(C)C)cc2cc1C1=CCCCC1 [Compound 30, 3-Cyclohexenyl-6-isopropyl-2-methylquinoline]	7.8	11.7 (≈ 3.11 µg/mL)	6	–
CCc1cc2cc(N(C)C)ccc2nc1CC [Compound 33, 2,3-Diethyl-N,N-dimethylquinoline]	18.7	–	–	–
Cc1nc2ccc(N(C)C)cc2cc1-c1ccccc1 [Compound 34, 2-methyl-3-phenyl-6-(N,N-dimethylamino) quinoline]	10	121 (≈ 31.9 µg/mL)	>100	–
CCCCc1ccc2nc(C)c(-c3ccccc3)cc2c1 [Compound 36, 6-Butyl-2-methyl-3-phenylquinoline]	21.6	–	–	–

From patent publication US12084421B2, “Quinoline-based proteasome inhibitors and uses thereof” (Board of Trustees of Michigan State University, priority 2017, dated 2024)
